Like-named read-outs stand apart in the source and are kept apart here.
Assays:
[1] = system: ATP (adenosine triphosphate); assay: Bidirectional transport in MDCK cell monolayers with selective transporter inhibitors or substrates; type: in vitro ADME, canine; conditions: dog, with NaN3 10 mM, + NaN3 10 mM (ATP), read-out: ER
Protocol: (§1) Caco-2, MDCK and MDCK-MRP2 cells were donated by Prof. Yan Xie and Yueming Ma from Shanghai University of Traditional Chinese Medicine. The cells were grown in culture dishes (Corning® Costar, Cambridge, MA, USA) using DMEM supplemented with 10% FBS, 1% NEAA and 1% penicillin-streptomycin solution. The cells were cultured in 5% CO2 and […] with 90% relative humidity at 37°C. The medium was replaced every other day during incubation. The cells were passaged every 3–4 days between 70 and 80% confluence at a 1:5 split ratio using 0.25% trypsin-EDTA. For the transport experiments, the cells from passages between 30 and 45 were seeded at 1 × 10^5 cells/cm^2 onto permeable polycarbonate inserts (0.45 μm pore size, seeding surface of 0.6 cm^2, Millipore, MA, USA) in 24-well plastic plates. The media in the culture plates were changed every other day for the first week after seeding and were replaced daily afterward. […] The cells were used for the transport experiments 21–28 (Caco-2) or 5–7 (MDCK and MDCK-MRP2) days after seeding, and only monolayers with a TEER-value above 420 Ω cm^2 were used during the studies.
(§2) The apical (AP) and basolateral (BL) sides are typical of polarized Caco-2, MDCK and MDCK-MRP2 epithelial cells. Before the experiments, the polarized cell monolayers were washed twice with warm HBSS solution and subsequently preincubated (37°C, 30 min). Afterward, HBSS solution on both sides of the cell monolayers was removed using a mini desktop vacuum pump. […] The final DMSO concentration in the HBSS or drug mixture was below 0.5%. The monolayers were incubated at 37°C, and 100 μL samples were taken at 30, 60, 90, and 120 min from the acceptor compartment and immediately replaced with the same volume of prewarmed fresh blank HBSS. TEER measurements for assessing the membrane integrity took place before and after the experiments.
(§3) The apparent permeability coefficients (Papp) and ER were calculated as Equations (2) and (3): […]
(§4) where dQ/dt is the steady-state flux, A is the membrane surface area, and C0 is the initial drug concentration in the donor compartment. PappBA is the Papp-value measured in BL to AP direction and PappAB is the Papp-value measured in AP to BL direction. It indicated the involvement of an active transport process when the ER-value is above 1.5 (Hubatsch et al., [2007]).

BCRP = assay: as above; type: in vitro ADME, canine; conditions: dog; for efflux ratio at 120 min, 2 μM: read-out: ER
Protocol: as §1, §2, §3, §4

MDCK cell monolayers = assay: as above; type: in vitro ADME, canine; conditions: 2 μM
Protocol: as §1, §2, §3, §4

MDR1 = assay: as above; type: in vitro ADME, canine; conditions: dog; for efflux ratio at 120 min, 2 μM: read-out: ER
Protocol: as §1, §2, §3, §4

MRP2 [2] = assay: as above; type: in vitro ADME, canine; conditions: dog, read-out: ER
Protocol: as §1, §2, §3, §4

Na+/K+-ATPase = assay: as above; type: in vitro ADME, canine; conditions: dog, with sodium vanadate 0.05 mM (50 μM), + Sodium vanadate 0.05 mM (Na^+)
Protocol: as §1, §2, §3, §4

OATs = assay: as above; type: in vitro ADME, canine; conditions: dog, with cimetidine 0.05 mM (50 μM), + Cimetidine 0.05 mM (OATs)
Protocol: as §1, §2, §3, §4

OCTs/OCTNs = assay: as above; type: in vitro ADME, canine; conditions: dog, with TEA 5 mM, + TEA 5 mM (OCTs/OCTNs)
Protocol: as §1, §2, §3, §4

SGLT1 = assay: as above; type: in vitro ADME, canine; conditions: dog, with phloridzin 0.5 mM, + Phloridzin 0.5 mM (SGLT1), read-out: ER
Protocol: as §1, §2, §3, §4

MRP2 [3] = assay: Western blot analysis of MRP2 protein expression in Caco-2 cells; type: cell-based, human; conditions: 48 h, 1, 2, and 5 μM
Protocol: The Caco-2 cells were seeded into 6-well plates at a density of 1 × 10^5 cells/mL and cultured for 24 h. […] Protein lysate was collected by centrifugation at 12,000 rpm at 4°C for 10 min, and the total protein content was determined using BCA protein assay kit. Proteins were then mixed with a quarter volume of loading buffer and heated at 100°C for 5 min. Approximately 20 μg of the total protein content was separated by SDS-PAGE through an 8% acrylamide gel and transferred to PVDF membranes. After washing with PBST, the membrane was blocked with 5% fat-free milk in PBST for 1 h at room temperature (RT) and then incubated with anti-MRP2 (1:500) and anti-GAPDH (1:5,000) overnight at 4°C. Afterwards, the membranes were rinsed with PBST and incubated with HRP-conjugated anti-rabbit (1:5,000) secondary antibody for 2 h at RT. After complete washing with PBST, the protein bands were visualized with ECL prime kit (GE Healthcare, NA, UK).

[4] = with apigenin 0.025 mM (25 μM), + Apigenin 0.025 mM (BCRP)
[5] = Control (no inhibitor or substrate)
[6] = with quinidine 0.1 mM (100 μM), + Quinidine 0.1 mM (MDR1)
[7] = with verapamil 0.1 mM (100 μM), + Verapamil 0.1 mM (MDR1)

`COc1ccc2c3c([nH]c2c1)C(C)=NCC3` [Harmaline] was tested. Which efflux ratio at 120 min, 2 μM [1] did it give?
Its efflux ratio at 120 min, 2 μM is 1.4.

And the efflux ratio at 120 min, 2 μM (BCRP; with Ko143 0.01 mM (10 μM), + Ko143 0.01 mM (BCRP))?
The efflux ratio at 120 min, 2 μM was 1.16.

And the Papp B→A at 120 min, 2 μM (BCRP; [4])?
Its Papp B→A at 120 min, 2 μM is 23.7 ± 1.11 ×10⁻⁶ cm/s.

What about the efflux ratio at 120 min, 2 μM (BCRP; [4]) of the same compound?
Its efflux ratio at 120 min, 2 μM is 1.16.

What about the Modulatory effect (MDCK cell monolayers; + Apigenin 0.025 mM (BCRP)) of the same compound?
Its Modulatory effect is “−”.

What about the PappAB (MDCK cell monolayers; + Apigenin 0.025 mM (BCRP)) of the same compound?
Its PappAB is 20.44 ± 2.19 1 × 10^−6 cm/s.

What about the Modulatory effect (MDCK cell monolayers; + Cimetidine 0.05 mM (OATs)) of the same compound?
Its Modulatory effect is “−”.

What about the Modulatory effect (MDCK cell monolayers; + ES 0.05 mM (OATPs)) of the same compound?
Its Modulatory effect is “−”.

What about the PappBA (MDCK cell monolayers; + ES 0.05 mM (OATPs)) of the same compound?
Its PappBA is 20.89 ± 0.79 1 × 10^−6 cm/s.

What about the Modulatory effect (MDCK cell monolayers; + Gly-Sar 10 mM (PEPT1)) of the same compound?
Its Modulatory effect is “−”.

And the Modulatory effect (MDCK cell monolayers; + Ko143 0.01 mM (BCRP))?
Its Modulatory effect is “−”.

What about the PappAB (MDCK cell monolayers; + Ko143 0.01 mM (BCRP)) of the same compound?
The PappAB was 20.08 ± 0.41 1 × 10^−6 cm/s.

What about the PappBA (MDCK cell monolayers; + Ko143 0.01 mM (BCRP)) of the same compound?
The PappBA was 23.37 ± 0.73 1 × 10^−6 cm/s.

And the Modulatory effect (MDCK cell monolayers; + MK571 0.05 mM (MRP2))?
The Modulatory effect was “−”.

What about the PappAB (MDCK cell monolayers; + MK571 0.05 mM (MRP2)) of the same compound?
The PappAB was 19.66 ± 0.65 1 × 10^−6 cm/s.

What about the PappBA (MDCK cell monolayers; + MK571 0.05 mM (MRP2)) of the same compound?
Its PappBA is 22.57 ± 0.14 1 × 10^−6 cm/s.

What about the Modulatory effect (MDCK cell monolayers; + NaN3 10 mM (ATP)) of the same compound?
Its Modulatory effect is “+”.

And the PappAB (MDCK cell monolayers; + NaN3 10 mM (ATP))?
The PappAB was 16.22 ± 0.84^* 1 × 10^−6 cm/s.

What about the PappBA (MDCK cell monolayers; + NaN3 10 mM (ATP)) of the same compound?
Its PappBA is 22.78 ± 1.65 1 × 10^−6 cm/s.

What about the Modulatory effect (MDCK cell monolayers; + Phloretin 0.3 mM (MCTs)) of the same compound?
The Modulatory effect was “−”.

What about the PappAB (MDCK cell monolayers; + Phloretin 0.3 mM (MCTs)) of the same compound?
The PappAB was 20.34 ± 0.71 1 × 10^−6 cm/s.

What about the PappAB (MDCK cell monolayers; + Phloridzin 0.5 mM (SGLT1)) of the same compound?
Its PappAB is 15.96 ± 0.96^* 1 × 10^−6 cm/s.

And the PappBA (MDCK cell monolayers; + Phloridzin 0.5 mM (SGLT1))?
Its PappBA is 20.59 ± 1.19 1 × 10^−6 cm/s.

And the Modulatory effect (MDCK cell monolayers; + Probenecid 0.2 mM (MRP2))?
The Modulatory effect was “−”.

And the PappAB (MDCK cell monolayers; + Probenecid 0.2 mM (MRP2))?
Its PappAB is 21.01 ± 2.16 1 × 10^−6 cm/s.

What about the PappBA (MDCK cell monolayers; + Probenecid 0.2 mM (MRP2)) of the same compound?
The PappBA was 21.86 ± 1.21 1 × 10^−6 cm/s.

What about the Modulatory effect (MDCK cell monolayers; + Quinidine 0.1 mM (MDR1)) of the same compound?
Its Modulatory effect is “−”.

And the Modulatory effect (MDCK cell monolayers; + Sodium vanadate 0.05 mM (Na^+))?
The Modulatory effect was “+”.

And the Modulatory effect (MDCK cell monolayers; + TEA 5 mM (OCTs/OCTNs))?
Its Modulatory effect is “+”.

What about the Modulatory effect (MDCK cell monolayers; + Verapamil 0.1 mM (MDR1)) of the same compound?
The Modulatory effect was “−”.

And the PappAB (MDCK cell monolayers; + Verapamil 0.1 mM (MDR1))?
The PappAB was 20.96 ± 1.30 1 × 10^−6 cm/s.

And the PappAB (MDCK cell monolayers; [5])?
The PappAB was 20.36 ± 1.82 1 × 10^−6 cm/s.

What about the PappBA (MDCK cell monolayers; [5]) of the same compound?
The PappBA was 21.03 ± 2.11 1 × 10^−6 cm/s.

What about the Papp A→B at 120 min, 2 μM (MDR1; [6]) of the same compound?
Its Papp A→B at 120 min, 2 μM is 20.1 ± 0.76 ×10⁻⁶ cm/s.

What about the Papp B→A at 120 min, 2 μM (MDR1; [6]) of the same compound?
The Papp B→A at 120 min, 2 μM was 22.5 ± 1.12 ×10⁻⁶ cm/s.

What about the efflux ratio at 120 min, 2 μM (MDR1; [6]) of the same compound?
The efflux ratio at 120 min, 2 μM was 1.12.

What about the Papp B→A at 120 min, 2 μM (MDR1; [7]) of the same compound?
Its Papp B→A at 120 min, 2 μM is 21.9 ± 2.64 ×10⁻⁶ cm/s.

What about the efflux ratio at 120 min, 2 μM (MDR1; [7]) of the same compound?
The efflux ratio at 120 min, 2 μM was 1.05.

What about the efflux ratio at 120 min, 2 μM (MRP2 [2]; with MK571 0.05 mM (50 μM), + MK571 0.05 mM (MRP2)) of the same compound?
Its efflux ratio at 120 min, 2 μM is 1.15.

And the efflux ratio at 120 min, 2 μM (MRP2 [2]; with probenecid 0.2 mM (200 μM), + Probenecid 0.2 mM (MRP2))?
Its efflux ratio at 120 min, 2 μM is 1.04.

What about the Papp A→B at 120 min, 2 μM (Na+/K+-ATPase) of the same compound?
Its Papp A→B at 120 min, 2 μM is 16.2 ± 1.45 ×10⁻⁶ cm/s.

And the Papp B→A at 120 min, 2 μM (Na+/K+-ATPase)?
Its Papp B→A at 120 min, 2 μM is 20.4 ± 0.22 ×10⁻⁶ cm/s.

And the efflux ratio at 120 min, 2 μM (Na+/K+-ATPase; read-out: ER)?
Its efflux ratio at 120 min, 2 μM is 1.26.

And the Papp A→B at 120 min, 2 μM (OATs)?
The Papp A→B at 120 min, 2 μM was 19.2 ± 1.29 ×10⁻⁶ cm/s.

And the Papp B→A at 120 min, 2 μM (OATs)?
Its Papp B→A at 120 min, 2 μM is 19.2 ± 1.33 ×10⁻⁶ cm/s.

What about the efflux ratio at 120 min, 2 μM (OATs; read-out: ER) of the same compound?
Its efflux ratio at 120 min, 2 μM is 1.

What about the Papp A→B at 120 min, 2 μM (OCTs/OCTNs) of the same compound?
Its Papp A→B at 120 min, 2 μM is 16.5 ± 1.1 ×10⁻⁶ cm/s.

And the Papp B→A at 120 min, 2 μM (OCTs/OCTNs)?
The Papp B→A at 120 min, 2 μM was 22.8 ± 0.29 ×10⁻⁶ cm/s.

And the efflux ratio at 120 min, 2 μM (OCTs/OCTNs; read-out: ER)?
The efflux ratio at 120 min, 2 μM was 1.38.

And the efflux ratio at 120 min, 2 μM (SGLT1)?
The efflux ratio at 120 min, 2 μM was 1.29.

And the “effect on the expression of MRP2” value (MRP2 [3])?
Its value is “no effect”.

From publication PMC5566973 (Frontiers in Pharmacology, 2017)
